Patent US20200188473A1, “COMBINATION THERAPY FOR CANCER” (BETH ISRAEL DEACONESS MEDICAL CENTER, INC., priority 2017, published 2020)

Assays:
ACE2 = experiment: transcriptome analysis of untreated vs resistant xenograft tumors; assay type: in vivo, mice; details: for ACE2 down modulation in resistant tumors vs control untreated tumors: 786-0 model
Description: Transcriptome analysis of the untreated tumors vs the resistant tumors was performed. ACE2 was the second most down-modulated gene common to the sorafenib and sunitinib treated 786-0 model with a 2.4 fold down modulation in the resistant tumors vs the control untreated tumors. Moreover, ACE2 was in the top 3 most down-modulated genes in the A498 tumor model with a 5-fold decrease i n resistant tumors vs untreated tumors (P<0.001).

[1] = system: human VHL deficient RCC cell lines (A498); details: A498 xenograft; treatment begun at 12 mm diameter; resistance = time to grow 2 mm beyond pretreatment size; sunitinib 30 mg/kg daily by gavage
Description: A murine xenograft system to study resistance antiangiogenic agents was developed. To assess the effects of antiangiogenic therapy on the growth of human RCC xenografts, established human VHL deficient RCC cell lines (A498) were implanted subcutaneously (1×10^7 cells) into the flanks of 6-8 week old nude/beige mice. The tumors were measured in two axes and the largest axis was followed. Treatment with sunitinib or sorafenib was begun when the tumors reached a diameter of 12 mm (roughly 3 weeks after injection) and resistance to this treatment was monitored. Resistance was defined as the time required for a tumor to grow 2 mm beyond its pretreatment size. […] This model was used to study the mechanisms by which tumors escape angiogenesis inhibition.
The effect of sunitinib and Ang(1-7) on the growth of human RCC xenografts was tested. 1×10^7 cells were injected into the flanks of nude-beige mice. Established human VHL deficient RCC cell lines (A498) were implanted subcutaneously (1×10^7 cells) into the flanks of 6-8 week old nude/beige mice. The tumors were measured in two axes and the largest axis was followed. Treatment with sunitinib (30 mg/kg daily by gavage) and Ang(1-7) 1 mg/kg Ang(1-7) IP three times per week was begun when the tumors reached a diameter of 12 mm (roughly 3 weeks after injection). […]

Compound | ACE2 down modulation in resistant tumors vs control untreated tumors (ACE2) [fold] | ACE2 expression (ACE2; murine xenograft system, sunitinib treatment) | period of relative stabilization [1] [days]
CNC(=O)c1cc(Oc2ccc(NC(=O)Nc3ccc(Cl)c(C(F)(F)F)c3)cc2)ccn1 [sorafenib] | 2.4 | – | –
CCN(CC)CCNC(=O)c1c(C)[nH]c(/C=C2\C(=O)Nc3ccc(F)cc32)c1C [sunitinib] | 2.4 | loss of ACE2 expression | 10 to 12
